# From ChEMBL document CHEMBL4811259, “Novel 1-(prop-2-yn-1-ylamino)-2,3-dihydro-1H-indene-4-thiol derivatives as potent selective human monoamine oxidase B inhibitors: Design, SAR development, and biological evaluation” (Bioorg Med Chem Lett, 2021)
# Activity calls are given as the source filed them. No cut-off for these calls is given here.
# Assays:
# [1] = Selectivity index, ratio of IC50 for human MAO-A to IC50 for human MAO-B
# [2] = target: T1, Amine oxidase [flavin-containing] B (Homo sapiens, UniProt P27338); assay: Inhibition of human MAO-B
# T1 sequence (P27338 whole entry): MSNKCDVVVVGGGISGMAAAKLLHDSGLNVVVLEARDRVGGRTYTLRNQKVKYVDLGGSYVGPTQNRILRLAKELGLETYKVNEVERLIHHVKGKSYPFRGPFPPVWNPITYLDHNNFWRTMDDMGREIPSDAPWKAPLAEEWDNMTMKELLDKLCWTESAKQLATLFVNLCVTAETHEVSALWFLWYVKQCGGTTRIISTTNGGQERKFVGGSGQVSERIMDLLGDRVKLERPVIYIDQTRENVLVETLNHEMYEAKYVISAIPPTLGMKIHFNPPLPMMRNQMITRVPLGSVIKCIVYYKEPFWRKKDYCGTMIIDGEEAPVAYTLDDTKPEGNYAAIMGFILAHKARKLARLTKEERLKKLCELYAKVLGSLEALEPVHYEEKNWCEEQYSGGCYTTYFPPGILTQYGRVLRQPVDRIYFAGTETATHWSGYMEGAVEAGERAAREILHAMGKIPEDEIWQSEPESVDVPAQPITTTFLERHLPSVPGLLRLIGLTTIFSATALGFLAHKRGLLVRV
# [3] = target: T1, Amine oxidase [flavin-containing] B; assay: Inhibition of human MAO-A; format: ADME
# Mus musculus [4] = assay: Neuroprotective activity against MPTP-induced C57BL/6J mouse model of Parkinson's disease assessed as decrease in immobility time at 0.2 mg/kg, ip pretreated for 7 consecutive days followed by MPTP challenge and further treated with compound until day 14 by open field test; format: functional, organism-based; details: time 14.0 day
# SH-SY5Y [5] = assay: Neuroprotective activity against LPS-induced oxidative stress in human SH-SY5Y cells assessed as decrease in ROS level at < 20 uM after 24 hrs by DCFH-DA dye based fluorescence assay; format: functional, cell-based; details: dose microM <20, time 24.0 hrs
# SH-SY5Y [6] = assay: Cytotoxicity against human SH-SY5Y cells assessed as induction of cell death at 50 uM after 24 hrs by MTT assay relative to control; format: cell-based
# SH-SY5Y [7] = assay: Cytotoxicity against human SH-SY5Y cells at 5 to 50 uM after 24 hrs by MTT assay; format: cell-based; details: dose 5-50 µM
# BV-2 [8] = assay: Cytotoxicity against C57/BL6 mouse BV-2 cells at 5 to 50 uM after 24 hrs by MTT assay; format: cell-based; details: bv-2, 24 h, dose 5-50 µM
# BV-2 [9] = assay: Cytotoxicity against C57/BL6 mouse BV-2 cells assessed as induction of cell death at 50 uM after 24 hrs by MTT assay relative to control; format: cell-based; details: bv-2, 24 h
# Mus musculus [10] = assay: Neuroprotective activity against MPTP-induced C57BL/6J mouse model of Parkinson's disease assessed as increase in total distance at 0.2 mg/kg, ip pretreated for 7 consecutive days followed by MPTP challenge and further treated with compound until day 14 by open field test; format: functional, organism-based; details: time 14.0 day
# BV-2 [11] = assay: Neuroprotective activity against LPS-induced oxidative stress in C57/BL6 mouse BV-2 cells assessed as decrease in ROS level at < 20 uM after 24 hrs by DCFH-DA dye based fluorescence assay; format: functional, cell-based; details: dose microM <20, time 24.0 hrs
# Mus musculus [12] = assay: Neuroprotective activity against MPTP-induced C57BL/6J mouse model of Parkinson's disease assessed as increase in average speed at 0.2 mg/kg, ip pretreated for 7 consecutive days followed by MPTP challenge and further treated with compound until day 14 by open field test; format: functional, organism-based; details: time 14.0 day
SMILES,Ratio IC50 [1],IC50 [2] [µM],also measured
C#CCNC1CCc2c(OCc3cccc(C(F)(F)F)c3)cccc21 (stereo unspecified),0.84,6.41,
C#CCNC1CCc2c(SCc3cccc(Cl)c3)cccc21 (stereo unspecified),0.047,23.3,
C#CCNC1CCc2c(SCCc3cccc(F)c3)cccc21 (stereo unspecified),1.82,4.3,
C#CCNC1CCc2c(SCCc3cccc(OC)c3)cccc21 (stereo unspecified),0.13,28.7,
C#CCNC1CCc2c(SCCc3ccc(C(F)(F)F)cc3)cccc21 (stereo unspecified),0.54,16.1,
C#CCNC1CCc2c(SCc3ccc4ccccc4c3)cccc21 (stereo unspecified),14,4.95,
C#CCNC1CCc2c(SCc3ccccc3)cccc21 (stereo unspecified),> 15.6,6.4,IC50 [3]: Not Active
C#CCNC1CCc2c(SCc3cccc(C)c3)cccc21 (stereo unspecified),,> 100,
C#CCNC1CCc2c(SCc3ccc(F)cc3F)cccc21 (stereo unspecified),0.61,2.43,
C#CCNC1CCc2c(SCCc3cccc(Cl)c3)cccc21 (stereo unspecified),,82.4,
C#CCNC1CCc2c(SCCc3cccc(Br)c3)cccc21 (stereo unspecified),0.02,30.5,
C#CCNC1CCc2c(SCCc3ccc(Cl)cc3)cccc21 (stereo unspecified),0.085,10.8,
C#CCNC1CCc2c(SCc3cccc(F)c3)cccc21 (stereo unspecified),7.79,1.48,
C#CCNC1CCc2c(SCCc3ccc(Br)cc3)cccc21 (stereo unspecified),0.015,85.3,
C#CCNC1CCc2c(SCc3ccc(F)c(F)c3)cccc21 (stereo unspecified),0.99,2.65,
C#CCNC1CCc2c(SCc3cccc(OC)c3)cccc21 (stereo unspecified),0.48,3.19,

SMILES,Ratio IC50 [1],IC50 [2] [µM],also measured
C#CCNC1CCc2c(SCc3ccc(C)cc3)cccc21 (stereo unspecified),0.2,1.56,
C#CCNC1CCc2c(SCc3ccc(Cl)cc3Cl)cccc21 (stereo unspecified),5.93,3.76,
C#CCNC1CCc2c(SCc3ccc(Br)cc3)cccc21 (stereo unspecified),0.37,1.31,
C#CCNC1CCc2c(SCCc3cccc(C(F)(F)F)c3)cccc21 (stereo unspecified),0.076,3.72,
C#CCNC1CCc2c(SCCc3ccc(C)cc3)cccc21 (stereo unspecified),0.18,25.8,
C#CCN[C@@H]1CCc2ccccc21 [RASAGILINE],,,Activity (Mus musculus [4]): Active; Activity (SH-SY5Y [5]): Active; Activity (SH-SY5Y [6]): 30%; Activity (SH-SY5Y [7]): Non-Toxic; Activity (BV-2 [8]): Non-Toxic; Activity (BV-2 [9]): 30%; Activity (Mus musculus [10]): Active; Activity (BV-2 [11]): Active; Activity (Mus musculus [12]): Active
C#CCNC1CCc2c(SCc3cccc(Br)c3)cccc21 (stereo unspecified),,> 100,
C#CCNC1CCc2c(SCCc3cccc(C)c3)cccc21 (stereo unspecified),14200,0.00035,Activity (Mus musculus [4]): Active; Activity (SH-SY5Y [5]): Active; Activity (SH-SY5Y [6]): 30%; Activity (SH-SY5Y [7]): Non-Toxic; Activity (BV-2 [8]): Non-Toxic; Activity (BV-2 [9]): 30%; Activity (Mus musculus [10]): Active; Activity (BV-2 [11]): Active; Activity (Mus musculus [12]): Active
C#CCNC1CCc2c(SCc3ccc(C(F)(F)F)cc3)cccc21 (stereo unspecified),0.096,9.68,
C#CCNC1CCc2c(SCc3ccc(OC)cc3)cccc21 (stereo unspecified),2.09,1.9,
C#CCNC1CCc2c(SCCc3ccc(OC)cc3)cccc21 (stereo unspecified),13.5,62,
C#CCNC1CCc2c(SCCc3ccc(Cl)c(Cl)c3)cccc21 (stereo unspecified),0.73,3.85,
C#CCNC1CCc2c(SCc3cccc(C(F)(F)F)c3)cccc21 (stereo unspecified),1640,0.0047,Activity (Mus musculus [4]): Active; Activity (SH-SY5Y [5]): Active; Activity (SH-SY5Y [6]): 30%; Activity (SH-SY5Y [7]): Non-Toxic; Activity (BV-2 [8]): Non-Toxic; Activity (BV-2 [9]): 30%; Activity (Mus musculus [10]): Active; Activity (BV-2 [11]): Active; Activity (Mus musculus [12]): Active
C#CCNC1CCc2c(SCCc3ccc(F)c(F)c3)cccc21 (stereo unspecified),,3.24,
C#CCNC1CCc2c(NCc3cccc(C(F)(F)F)c3)cccc21 (stereo unspecified),2.21,5.11,
C#CCNC1CCc2c(SCc3ccc(Cl)c(Cl)c3)cccc21 (stereo unspecified),0.026,2.84,
